The results in this text go back to PubChem BioAssay AID180 (DTP/NCI, 2004).

Where “and” joins values, the source holds several entries; their conditions need not be identical. Equal entries are not always repeated.

The experiment has as its system BDF1 mice, Adenocarcinoma 755 s.c., tumor weight T/C. In words: NCI In Vivo Anticancer Drug Screen. Data for tumor model Adenocarcinoma 755 (subcutaneous) in B6D2F1 (BDF1) mice. The conditions noted are these: endpoint: mean tumor weight, higher = larger tumour. The method, then:
The antitumor activity of compounds was measured in mice bearing transplantable tumors. Survival or tumor size were measured and the results are expressed as the measurement made in the treated group (T) divided by the measurement made in the vehicle treated control group (C). The tumor model used in this assay is Adenocarcinoma 755 (subcutaneous) in B6D2F1 (BDF1) mice

Usually T/C stands for the ratio of treated to control. For `c1ccc(CSc2ncnc3nc[nH]c23)cc1`, the T/C (dose: 1.5 mg/kg/injection, schedule: Q01DX011 (ip), vehicle: alkali diluted with saline) was 2 % of control; the T/C (dose: 1.5 mg/kg/injection, schedule: Q01DX011 (oral), vehicle: alkali diluted with saline) was 22 % of control; the T/C (dose: 2.5 mg/kg/injection, schedule: Q01DX011 (ip), vehicle: saline) was 35 % of control; the T/C (dose: 3.0 mg/kg/injection, schedule: Q01DX011 (ip), vehicle: alkali diluted with saline) was 44 % of control; the T/C (dose: 3.0 mg/kg/injection, schedule: Q01DX011 (ip), vehicle: carboxymethylcellulose (CMC)) is 59 % of control; the T/C (dose: 3.0 mg/kg/injection, schedule: Q01DX011 (oral), vehicle: alkali diluted with saline) is 28 % of control. Besides, the T/C (dose: 3.1 mg/kg/injection, schedule: Q01DX011 (ip), vehicle: carboxymethylcellulose (CMC)) was 43 % of control; the T/C (dose: 5.0 mg/kg/injection, schedule: Q01DX011 (ip), vehicle: saline) was 12 % of control; the T/C (dose: 6.0 mg/kg/injection, schedule: Q01DX006 (iv), vehicle: saline) was 17 % of control; the T/C (dose: 6.0 mg/kg/injection, schedule: Q01DX011 (im), vehicle: saline) was 12 % of control; the T/C (dose: 6.0 mg/kg/injection, schedule: Q01DX011 (ip), vehicle: alkali diluted with saline) was 16 % of control; the T/C (dose: 6.0 mg/kg/injection, schedule: Q01DX011 (ip), vehicle: carboxymethylcellulose (CMC)) was 22 % of control and 32 % of control. For the same compound, the T/C (dose: 6.0 mg/kg/injection, schedule: Q01DX011 (ip), vehicle: saline) was 2 % of control; the T/C (dose: 6.0 mg/kg/injection, schedule: Q01DX011 (oral), vehicle: alkali diluted with saline) is 16 % of control; the T/C (dose: 6.0 mg/kg/injection, schedule: Q01DX011 (sc), vehicle: steriod suspending solution) is 9 % of control; the T/C (dose: 6.2 mg/kg/injection, schedule: Q01DX011 (ip), vehicle: carboxymethylcellulose (CMC)) is 15 % of control; the T/C (dose: 10.0 mg/kg/injection, schedule: Q01DX011 (ip), vehicle: saline) is 5 % of control; the T/C (dose: 11.0 mg/kg/injection, schedule: Q07DX002 (ip), vehicle: alkali diluted with saline) is 39 % of control. Further, the T/C reads like this: (dose: 12.0 mg/kg/injection, schedule: Q01DX006 (iv), vehicle: saline) 2 % of control; (dose: 12.0 mg/kg/injection, schedule: Q01DX011 (im), vehicle: saline) 3 % of control; (dose: 12.0 mg/kg/injection, schedule: Q01DX011 (ip), vehicle: carboxymethylcellulose (CMC)) 3 % of control; (dose: 12.0 mg/kg/injection, schedule: Q01DX011 (oral), vehicle: alkali diluted with saline) 54 % of control; (dose: 12.0 mg/kg/injection, schedule: Q01DX011 (sc), vehicle: steriod suspending solution) 5 % of control; (dose: 12.5 mg/kg/injection, schedule: Q01DX011 (ip), vehicle: carboxymethylcellulose (CMC)) 3 % of control. The T/C is 17 % of control (dose: 13.0 mg/kg/injection, schedule: Q01DX011 (ip), vehicle: carboxymethylcellulose (CMC)); 31 % of control (dose: 19.0 mg/kg/injection, schedule: Q03DX004 (ip), vehicle: carboxymethylcellulose (CMC)); 50 % of control (dose: 22.0 mg/kg/injection, schedule: Q07DX002 (ip), vehicle: alkali diluted with saline); 9 % of control (dose: 25.0 mg/kg/injection, schedule: Q01DX006 (iv), vehicle: carboxymethylcellulose (CMC)); 3 % of control (dose: 25.0 mg/kg/injection, schedule: Q01DX006 (iv), vehicle: saline); 1 % of control (dose: 25.0 mg/kg/injection, schedule: Q01DX011 (im), vehicle: saline). The T/C was 2 % of control (dose: 25.0 mg/kg/injection, schedule: Q01DX011 (ip), vehicle: saline); 10 % of control (dose: 25.0 mg/kg/injection, schedule: Q01DX011 (oral), vehicle: carboxymethylcellulose (CMC)); 14 % of control (dose: 25.0 mg/kg/injection, schedule: Q01DX011 (sc), vehicle: carboxymethylcellulose (CMC)); 3 % of control (dose: 25.0 mg/kg/injection, schedule: Q01DX011 (sc), vehicle: steriod suspending solution); 2 % of control (dose: 38.0 mg/kg/injection, schedule: Q03DX004 (ip), vehicle: carboxymethylcellulose (CMC)); 43 % of control (dose: 44.0 mg/kg/injection, schedule: Q07DX002 (ip), vehicle: alkali diluted with saline). Further, the T/C by setting is: (dose: 44.0 mg/kg/injection, schedule: Q07DX002 (ip), vehicle: carboxymethylcellulose (CMC)) 5 % of control; (dose: 50.0 mg/kg/injection, schedule: Q01DX006 (iv), vehicle: carboxymethylcellulose (CMC)) 17 % of control; (dose: 50.0 mg/kg/injection, schedule: Q01DX011 (im), vehicle: carboxymethylcellulose (CMC)) 8 % of control; (dose: 50.0 mg/kg/injection, schedule: Q01DX011 (ip), vehicle: carboxymethylcellulose (CMC)) 3 % of control and 8 % of control; (dose: 50.0 mg/kg/injection, schedule: Q01DX011 (oral), vehicle: carboxymethylcellulose (CMC)) 6 % of control; (dose: 50.0 mg/kg/injection, schedule: Q01DX011 (sc), vehicle: steriod suspending solution) 1 % of control. Also, the T/C is, setting by setting: (dose: 75.0 mg/kg/injection, schedule: Q03DX004 (ip), vehicle: carboxymethylcellulose (CMC)) 2 % of control and 13 % of control; (dose: 88.0 mg/kg/injection, schedule: Q07DX002 (ip), vehicle: alkali diluted with saline) 16 % of control; (dose: 88.0 mg/kg/injection, schedule: Q07DX002 (ip), vehicle: carboxymethylcellulose (CMC)) 45 % of control; (dose: 100.0 mg/kg/injection, schedule: Q01DX011 (im), vehicle: carboxymethylcellulose (CMC)) 1 % of control and 2 % of control; (dose: 100.0 mg/kg/injection, schedule: Q01DX011 (ip), vehicle: carboxymethylcellulose (CMC)) 2 % of control; (dose: 100.0 mg/kg/injection, schedule: Q01DX011 (sc), vehicle: steriod suspending solution) 2 % of control. Also, the T/C (dose: 175.0 mg/kg/injection, schedule: Q07DX002 (ip), vehicle: carboxymethylcellulose (CMC)) was 3 % of control and 4 % of control; the T/C (dose: 200.0 mg/kg/injection, schedule: Q01DX011 (im), vehicle: carboxymethylcellulose (CMC)) was 11 % of control and 17 % of control; the T/C (dose: 200.0 mg/kg/injection, schedule: Q01DX011 (oral), vehicle: carboxymethylcellulose (CMC)) was 1 % of control and 6 % of control; the T/C (dose: 200.0 mg/kg/injection, schedule: Q01DX011 (sc), vehicle: carboxymethylcellulose (CMC)) was 17 % of control; the T/C (dose: 300.0 mg/kg/injection, schedule: Q03DX004 (ip), vehicle: carboxymethylcellulose (CMC)) was 6 % of control; the T/C (dose: 350.0 mg/kg/injection, schedule: Q07DX002 (ip), vehicle: carboxymethylcellulose (CMC)) is 1 % of control and 6 % of control. Moreover, the T/C (dose: 600.0 mg/kg/injection, schedule: Q03DX004 (ip), vehicle: alkali diluted with saline) is 3 % of control and the T/C (dose: 700.0 mg/kg/injection, schedule: Q07DX002 (ip), vehicle: carboxymethylcellulose (CMC)) is 1 % of control.

`S=P(Oc1ccccc1)(N1CC1)N1CC1`: the T/C by setting is: (dose: 55.0 mg/kg/injection, schedule: Q01DX011 (ip), vehicle: methylcellulose (MC)) 22 % of control and 42 % of control and 44 % of control; (dose: 220.0 mg/kg/injection, schedule: Q01DX011 (ip), vehicle: methylcellulose (MC)) 20 % of control.

For `NC(=O)CCl`, the T/C (dose: 25.0 mg/kg/injection, schedule: Q01DX011 (ip), vehicle: other) is 91 % of control and the T/C (dose: 50.0 mg/kg/injection, schedule: Q01DX011 (ip), vehicle: other) was 64 % of control.

`NNC(=O)NC(=O)NN`: the T/C was 117 % of control (dose: 13.06 mg/kg/injection, schedule: Q01DX011 (ip), vehicle: carboxymethylcellulose (CMC)); 187 % of control (dose: 26.13 mg/kg/injection, schedule: Q01DX011 (ip), vehicle: carboxymethylcellulose (CMC)); 74 % of control (dose: 52.25 mg/kg/injection, schedule: Q01DX011 (ip), vehicle: carboxymethylcellulose (CMC)); 79 % of control (dose: 104.5 mg/kg/injection, schedule: Q01DX011 (ip), vehicle: carboxymethylcellulose (CMC)); 207 % of control (dose: 3845.0 micrograms/kg/injection, schedule: Q01DX011 (ip), vehicle: carboxymethylcellulose (CMC)); 46 % of control (dose: 7690.0 micrograms/kg/injection, schedule: Q01DX011 (ip), vehicle: carboxymethylcellulose (CMC)).
